Here are results for 41 molecules from US20160075653A1, “NEMATICIDAL N-(PHENYLCYCLOALKYL)CARBOXAMIDES AND N-(PHENYLCYCLOALKYL)THIOCARBOXAMIDES” (BAYER CROPSCIENCE AKTIENGESELLSCHAFT, priority 2013, published 2016).

Structures are written as SMILES.

A short description of this data set: Measurement of log P values by HPLC on reversed phase columns (methods [a] pH 2.3, [b] pH 2.7, [c] pH 7.8). The format is physicochemical. As to conditions: HPLC on reversed phase column. The method, boiled down: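 Retention times were converted to log P by linear interpolation between linear alkan-2-one standards (3 to 16 carbons) of known log P. Eluents, each with 10% to 95% acetonitrile gradient: phosphoric acid 0.1% at pH 2.3 [a]; formic acid 0.1% at pH 2.7, LC-MS [b]; ammonium hydrogen carbonate 0.001 molar at pH 7.8, LC-MS [c].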

For `CC1=C(C(=O)N[C@@H]2C[C@@H]2c2ccc(Cl)cc2Cl)SCCO1` (relative stereo) [Example 615], the logP (method [b], pH 2.7) is 3.06^[b] and the logP (method [c], pH 7.8) is 3.01^[c];.
Take `O=C(N[C@@H]1CC[C@H]1c1cccc(F)c1C(F)(F)F)c1ncccc1Cl` (relative stereo) [Example 616]: the logP (method [b], pH 2.7) is 3.30^[b].
As for `O=C(N[C@@H]1CC[C@H]1c1ccccc1C(F)(F)F)c1cccnc1` (relative stereo) [Example 618], the logP (method [b], pH 2.7) was 2.26^[b].
As for `O=C(N[C@@H]1CC[C@H]1c1ccccc1C(F)(F)F)c1nccnc1Cl` (relative stereo) [Example 622], the logP (method [b], pH 2.7) is 2.98^[b].
With `O=C(N[C@@H]1CC[C@H]1c1ccccc1C(F)(F)F)c1ncccc1Br` (relative stereo) [Example 624], the logP reads like this: (method [b], pH 2.7) 3.34^[b]; (method [c], pH 7.8) 3.27^[c];.
In the case of `Cc1nc(C(F)(F)F)c(C(=O)N[C@@H]2CC[C@H]2c2cccc(F)c2C(F)(F)F)s1` (relative stereo) [Example 625], the logP (method [b], pH 2.7) was 3.56^[b].
With `Cc1nc(C(F)(F)F)c(C(=O)N[C@@H]2CC[C@@H]2c2cccc(F)c2C(F)(F)F)s1` (relative stereo) [Example 626], the logP (method [b], pH 2.7) is 3.28^[b].
Take `O=C(N[C@@H]1CC[C@H]1c1cccc(F)c1C(F)(F)F)c1sccc1I` (relative stereo) [Example 627]: the logP (method [b], pH 2.7) is 4.02^[b].
The same measure, in the same setting: as for `O=C(N[C@@H]1CC[C@@H]1c1cccc(F)c1C(F)(F)F)c1sccc1I` (relative stereo) [Example 628], the figure is 3.65^[b].
On the same count and under the same terms, as for `O=C(N[C@@H]1CC[C@H]1c1cccc(F)c1C(F)(F)F)c1ccccc1[N+](=O)[O-]` (relative stereo) [Example 629], the figure is 3.18^[b].
The same measure, in the same setting: as for `O=C(N[C@@H]1CC[C@H]1c1cccc(F)c1C(F)(F)F)c1ccccc1Br` (relative stereo) [Example 632], the figure is 3.57^[b]; as for `Cc1nc(C(F)(F)F)c(C(=O)N[C@@H]2CC[C@H]2c2ccccc2C(F)(F)F)s1` (relative stereo) [Example 633], 3.49^[b].
`Cc1nc(C(F)(F)F)c(C(=O)N[C@@H]2CC[C@@H]2c2ccccc2C(F)(F)F)s1` (relative stereo) [Example 634]: for the setting “method [b], pH 2.7”, the logP was 3.34^[b].
On the same count and under the same terms, as for `O=C(N[C@@H]1CC[C@H]1c1ccccc1C(F)(F)F)c1sccc1I` (relative stereo) [Example 635], the figure is 3.99^[b].
Same read-out and setting: the result for `O=C(N[C@@H]1CC[C@@H]1c1ccccc1C(F)(F)F)c1sccc1I` (relative stereo) [Example 636] reads 3.83^[b]; that for `O=C(N[C@@H]1CC[C@H]1c1ccccc1C(F)(F)F)c1ccccc1[N+](=O)[O-]` (relative stereo) [Example 637], 3.13^[b].
Consider `O=C(N[C@@H]1CC[C@H]1c1cccc(F)c1C(F)(F)F)c1c(F)cccc1F` (relative stereo) [Example 640], for which the logP (method [b], pH 2.7) is 3.36^[b].
The same measure, in the same setting: the result for `Cn1cc(C(=O)N[C@@H]2CC[C@@H]2c2cccc(F)c2C(F)(F)F)c(C(F)F)n1` (relative stereo) [Example 643] reads 2.75^[b].
For the molecule `Cn1cc(C(=O)N[C@@H]2CC[C@H]2c2cccc(F)c2C(F)(F)F)c(C(F)F)n1` (relative stereo) [Example 644], the logP (method [b], pH 2.7) is 2.99^[b].
Take `O=C(N[C@@H]1CC[C@H]1c1cccc(F)c1C(F)(F)F)c1nccnc1Cl` (relative stereo) [Example 646]: under “method [b], pH 2.7”, the logP is 3.10^[b].
As to `O=C(N[C@@H]1CC[C@H]1c1cccc(F)c1C(F)(F)F)c1cccnc1Cl` (relative stereo) [Example 648], the logP (method [b], pH 2.7) is 2.86^[b].
As to `N#Cc1ccccc1C(=O)N[C@@H]1C[C@@H]1c1ccc(Cl)cc1Cl` (relative stereo) [Example 650], the logP was 2.72^[b] (method [b], pH 2.7) and 2.70^[c]; (method [c], pH 7.8).
For `O=C(N[C@@H]1CC[C@H]1c1ccc(Br)cc1C(F)(F)F)c1ccccc1C(F)(F)F` (relative stereo) [Example 655] the same measures were 4.26^[b] and 4.19^[c];.
For `O=C(N[C@@H]1CC[C@@H]1c1ccc(Br)cc1C(F)(F)F)c1ccccc1C(F)(F)F` (relative stereo) [Example 656] the same measures were 4.02^[b] and 3.94^[c];.
As for `O=C(N[C@@H]1CC[C@@H]1c1ccc(Br)cc1C(F)(F)F)c1cccnc1C(F)(F)F` (relative stereo) [Example 657], the logP (method [b], pH 2.7) was 3.52^[b] and the logP (method [c], pH 7.8) is 3.42^[c];.
On to `O=C(N[C@@H]1CC[C@H]1c1ccc(Br)cc1C(F)(F)F)c1cccnc1C(F)(F)F` (relative stereo) [Example 658], for which the logP reads like this: (method [b], pH 2.7) 3.76^[b]; (method [c], pH 7.8) 3.66^[c];.
For the molecule `O=C(N[C@@H]1CC[C@@H]1c1ccc(Br)cc1C(F)(F)F)c1nccnc1C(F)(F)F` (relative stereo) [Example 659], the logP (method [b], pH 2.7) is 3.72^[b] and the logP (method [c], pH 7.8) was 3.62^[c];.
As for `O=C(N[C@@H]1CC[C@H]1c1ccc(Br)cc1C(F)(F)F)c1nccnc1C(F)(F)F` (relative stereo) [Example 660], the logP by setting is: (method [b], pH 2.7) 3.97^[b]; (method [c], pH 7.8) 3.87^[c];.
For the molecule `O=C(N[C@@H]1CC[C@@H]1c1ccc(Cl)cc1Cl)c1ccccc1[N+](=O)[O-]` (relative stereo) [Example 661], for the setting “method [b], pH 2.7”, the logP is 3.19^[b].
Consider `O=C(N[C@@H]1CC[C@H]1c1ccc(Cl)cc1Cl)c1cccnc1` (relative stereo) [Example 662], for which the logP (method [b], pH 2.7) is 2.58^[b].
The same measure, in the same setting: as for `O=C(N[C@@H]1CC[C@@H]1c1ccc(Cl)cc1Cl)c1cccnc1Cl` (relative stereo) [Example 663], the figure is 2.84^[b]; as for `O=C(N[C@@H]1CC[C@H]1c1cccc(F)c1C(F)(F)F)c1cccnc1` (relative stereo) [Example 664], 2.38^[b]; as for `O=C(N[C@@H]1CC[C@H]1c1ccc(Cl)cc1C(F)(F)F)c1ccc(Cl)cc1Cl` (relative stereo) [Example 665], 4.55^[b].
Still for that read-out and setting: the result for `O=C(N[C@@H]1CC[C@@H]1c1ccc(Cl)cc1C(F)(F)F)c1ccccc1Cl` (relative stereo) [Example 666] reads 3.75^[b].
Consider `O=C(N[C@@H]1CC[C@@H]1c1ccc(Cl)cc1C(F)(F)F)c1ncc(C(F)(F)F)cc1Cl` (relative stereo) [Example 667], for which the logP (method [b], pH 2.7) was 4.33^[b].
Still for that read-out and setting: the result for `Cc1nc(C(F)(F)F)c(C(=O)N[C@@H]2CC[C@H]2c2ccc(Cl)cc2Cl)s1` (relative stereo) [Example 668] reads 3.91^[b]; that for `Cc1nc(C(F)(F)F)c(C(=O)N[C@@H]2CC[C@@H]2c2ccc(Cl)cc2Cl)s1` (relative stereo) [Example 669], 3.58^[b].
As to `O=C(N[C@@H]1CC[C@H]1c1ccc(Cl)cc1Cl)c1sccc1I` (relative stereo) [Example 670], the logP (method [b], pH 2.7) is 4.51^[b].
As for `O=C(N[C@@H]1CC[C@@H]1c1ccc(Cl)cc1Cl)c1sccc1I` (relative stereo) [Example 671], where the note is “method [b], pH 2.7”, the logP is 4.20^[b].
Same read-out and setting: as for `O=C(N[C@@H]1CC[C@H]1c1ccc(Cl)cc1Cl)c1ccccc1[N+](=O)[O-]` (relative stereo) [Example 672], the figure is 3.47^[b]; as for `O=C(N[C@@H]1CC[C@@H]1c1ccc(Cl)cc1Cl)c1cccnc1` (relative stereo) [Example 673], 2.23^[b].
